Source: patent US20180104332A1, “INSULIN-LIKE GROWTH FACTOR INHIBITOR AND CHEMOTHERAPEUTIC AGENT FOR USE IN CANCER THERAPY” (The University of Liverpool, priority 2015, published 2018)

Experiments:
[1] = test system: pancreatic cancer; settings: patients diagnosed with pancreatic cancer; cited from earlier work
[2] = test system: KPC-derived orthotopic pancreatic tumors; assay: Syngeneic orthotopic pancreatic cancer model, gemcitabine and IGF blocking antibody BI 836845; assay type: in vivo, mouse; settings: for effect on tumor growth (tumor weights): i.p. twice a week for two weeks, gemcitabine 100 mg/Kg, BI 836845 100 mg/Kg, vs control IgG, FIG. 47b
Experimental: FIG. 47 illustrates a combination with gemcitabine with IGF blockade inhibites tumor growth in the syngeneic orthotopic pancreatic cancer model: (a) KPC^luc/zsGreen(zsGreen)-derived pancreatic tumor cells were orthotopically implanted into the pancreas of syngeneic recipient mice, and mice were treated, starting at day 7 after tumor implantation, twice a week i.p., with either control IgG antibody, gemcitabine (100 mg/Kg), IGF blocking antibody BI 836845 (100 mg/Kg) or a combination of gemcitabine with IGF blocking antibody. (b) Representative images of tumors and tumor weights are shown (n=6 mice per group). (c) Pancreatic tumors were digested and percentage of intra- tumoral F4/80+ macrophages, Ly6C+/Ly6G− inflammatory monoctyes, Gr1+/CD11b+ neutrophils and myeloid derived suppressor cells (MDSCs) and CD8+ cytotoxic T cells (CTCs), among CD45+ immune cells, were quantified by flow cytometry (n=3). (d) Percentage of intra-tumoral CD206− M1-like macrophages and CD206+M2-like macrophages, among F4/80+ macrophages, were quantified by flow cytometry (n=3). […] (f) Quantification of cleaved caspase-3 positive apoptotic cells in PDA tumors treated with IgG (control), gemcitabine, IGF blocking antibody BI 836845 or gemcitabine+BI 836845 (n=6 fields counted).
All animal experiments were performed in accordance with current UK legislation under an approved project licence (reference number: 403725). […] Tumor tissues were analyzed by immunohistochemical and immunofluorescent staining for phospho-lnsulin/IGFR expression, EpCAM expression, macrophage infiltration, fibroblast activation and apoptosis using the following antibodies: phospho-insulin/IGF receptor antibody (R&D), EpCAM (BD Pharmingen), CD68 antibody (DAKO), CD206 (abcam), αSMA (abcam) and cleaved caspase 3 (Cell signaling). Expression of IGF-1, IGF-2, Arginase, IL-10, IFNγ and IL-12 in intra-tumoral isolated macrophages were determined by qPCR. […]

[3] = test system: Suit-2 and KPC derived pancreatic cancer cells; assay: Cell death and cell cycle analysis of cancer cells treated with the agents alone; assay type: cell-based, human, mouse; settings: no chemotherapy; antibody 10 μg/ml, recombinant IGF 100 ng/ml; FIGS. 52 and 53
Experimental: FIG. 52 illustrates quantification of cell death in Suit-2 cells exposed to 200 nM gemcitabine, MCM and/or IGF blocking antibody (10 μg/ml). Error bars represent s.d. (n=3); **two tailed p value≤0.01 using a student's t-test.
FIG. 53 illustrates cell cycle analysis of primary mouse KPC derived pancreatic cancer cells exposed to MCM, IGF blocking antibody ([…]) or recombinant IGF (100 ng/ml).
KPC derived pancreatic cancer cells were treated with isogenic mouse MDFs, IGF1/2 blocking antibody (abcam 9572) at 10 μg/ml or recombinant IGF (Peprotech 100-11) at 100 ng/ml. Cells were harvested, fixed with methanol, treated for 45 min with 10 μg/ml of RNase, resuspended in PBS containing 10 μg/ml of propidium iodide and subjected to flow cytometry.

[4] = test system: Insulin/IGF receptor; assay: Immunoblotting of Insulin/IGF receptor signalling in cancer cells; assay type: cell-based, human, mouse; settings: Suit-2, KPC-derived and Py230 cells, 3 hours; FIG. 27
Experimental: FIG. 27 illustrates Immunoblot analysis of phospho-lnsulin/IGF receptor, phospho-Insulin receptor, Insulin receptor, phospho- IGF receptor 1, IGFR1 and tubulin, in human pancreatic cancer Suit-2 cells, murine primary KPC pancreatic cancer and
Py230 breast cancer derived cells, serum starved, exposed to MCM or exposed to recombinant IGF for 3 hours.
FIG. 28 illustrates that blockade of IGF impairs macrophage-mediated activation of Insulin/IGF receptor and downstream signalling molecules IRS1, IRS2 and AKT in cancer cells by Immunoblotting analysis of Suit-2 cells untreated or treated with MCM or MCM+IGF blocking antibody for 3 hours.
Cells were serum starved or treated with macrophage conditioned media for 30 min, 2 h or 3 h, harvested and lysed in RIPA buffer (150 mM NaCl, 10 mM Tris-HCl pH 7.2, 0.1% SDS, 1% Triton X-100, 5 mM EDTA) supplemented with a complete protease inhibitor mixture (SIGMA), a phosphatase inhibitor cocktail (Invitrogen), 1 mM PMSF and 0.2 mM Na3VO4. Cell lysates (300 μg) were analyzed with the Human Phospho-RTK Array Kit (R&D Systems). Protein samples were resuspended in 4xLaemmli sample buffer, and immunoblotting was performed on nitrocellulose membranes blocked in 5% BSA or milk (depending on the antibody) in Tris-buffered saline Tween-20 (TBST). […]

[5] = test system: MDA-MB-231 breast cancer cells; assay: Cell death by flow cytometry under nab-paclitaxel with MCM or recombinant IGF; assay type: cell-based, human; settings: recombinant IGF 100 ng/ml; 500 nM nab-paclitaxel, 48 hours; FIG. 33
Experimental: FIG. 33 illustrates human breast MDA-MB-231 cancer cells cultured in the presence or absence of MCM or recombinant IGF and treated with 500 nM nab-paclitaxel for 48 hours. Percentage of cell death was quantified by flow cytometry. Error bars represent s.d. (n=3); *two tailed p value≤0.05, **two tailed p value≤0.01 using a student's t-test.
MDA-MB-231 cells were pretreated for 3 hours with human macrophage derived factors (MDF) or recombinant IGF (100 ng/ml) followed by 500 nM of nab-paclitaxel.

[6] = test system: Suit-2 and KPC-derived pancreatic cancer cells; assay: Cell death by flow cytometry (annexinV/PI) under chemotherapy with MCM, IGF blocking antibody or recombinant IGF; assay type: cell-based; settings: recombinant IGF 100 ng/ml, 24 hours, FIGS. 30-32
Experimental: FIG. 29 illustrates quantification of cell death in Suit-2 cells treated with gemcitabine, MCM and IGF blocking antibody for 24 hours. Error bars represent s.d. (n=3); **two tailed p value≤0.01, *two tailed p value≤0.05 using a student's t-test.
FIG. 30 illustrates primary mouse KPC-derived pancreatic cancer cells were untreated or treated with gemcitabine, MCM, IGF blocking antibody or recombinant IGF for 24 hours and percentage of cell death was quantified by flow cytometry. Error bars represent s.d. (n=3); **two tailed p value≤0.01 using a student's t-test.
FIG. 32 illustrates KPC-derived cells which were cultured in the presence or absence of MCM or recombinant IGF and treated with 100 or 1000 nM nab-paclitaxel for 24 hours. Percentage of cell death was quantified by flow cytometry. Error bars represent s.d. (n=3); *two tailed p value≤0.05 using a student's t-test.
Suit-2 and KPC cells were cultured in serum free or DMEM with 2% FBS respectively, pretreated for 3 h with human or mouse macrophage conditioned media respectively, and IGF-1 IgG blocking antibody (abcam 9572) at 10 μg/ml or IgG antibody as control, followed by Gemcitabine at 200 nM. Cells were harvested after 24 hours, and subjected to flow cytometry. […] Apoptosis was evaluated by flow cytometry (FACS Calibur, Becton Dickinson). […]

Q: What does the source list for `Nc1ccn([C@@H]2O[C@H](CO)[C@@H](O)C2(F)F)c(=O)n1` [gemcitabine]?
A: patients treated with gemcitabine who die within 5 years of commencing treatment [1]: 95%; effect on tumor growth (tumor weights) [2]: no effect

Q: What does the source list for “recombinant IGF: recombinant IGF (Peprotech 100-11) used at 100 ng/ml”?
A: survival or proliferation of cancer cells, agent alone [3]: did not alter the survival or proliferation; Insulin/IGFR signaling in pancreatic and breast cancer cells [4]: activates Insulin/IGFR signaling; resistance of breast cancer cells to nab-paclitaxel [5]: sufficient to mediate resistance; resistance of pancreatic cancer cells to gemcitabine and nab-paclitaxel [6]: sufficient to mediate resistance

B1: BI 836845: IGF blocking antibody, in phase 1 clinical trials for various solid cancers (antibody, chains of the INN, looked up, V domains shown)
VH: QVELVESGGGLVQPGGSLRLSCAASGFTFTSYWMSWVRQAPGKGLELVSSITSYGSFTYYADSVKGRFTISRDNSKNTLYLQMNSLRAEDTAVYYCARNMYTHFDSWGQGTLVTVSS
VL: DIVLTQPPSVSGAPGQRVTISCSGSSSNIGSNSVSWYQQLPGTAPKLLIYDNSKRPSGVPDRFSGSKSGTSASLAITGLQSEDEADYYCQSRDTYGYYWVFGGGTKLTVL
Q: With B1 as the molecule, how does the “effect on tumor growth (tumor weights)” value [2] read?
A: Its value is “modest effect”.

Q: What about the “phospho-Insulin/IGFR expression in tumors” value ([2]; immunohistochemical analysis, FIG. 47e) of the same molecule?
A: Its value is “decreased”.
